Assay results taken from publication PMC2841792 (Journal of medicinal chemistry, 2010).
“Also recorded” adds a separate entry of the source. Structures can show the parent of a compound that is named as a salt. Where two headings read alike, the source gives them in different places.

Assays:
[1] = tested on: neuron; conditions: not told; cited from earlier work
[2] = target: T1, BoNT/A LC (Clostridium botulinum, UniProt P0DPI0); assay: biochemical; format: biochemical
[3] = target: BoNT/B LC (Clostridium botulinum, UniProt P10844); format: biochemical
[4] = target: T2, human MMP-1 (Homo sapiens, UniProt P03956); format: biochemical
T2 sequence (P03956 100-469): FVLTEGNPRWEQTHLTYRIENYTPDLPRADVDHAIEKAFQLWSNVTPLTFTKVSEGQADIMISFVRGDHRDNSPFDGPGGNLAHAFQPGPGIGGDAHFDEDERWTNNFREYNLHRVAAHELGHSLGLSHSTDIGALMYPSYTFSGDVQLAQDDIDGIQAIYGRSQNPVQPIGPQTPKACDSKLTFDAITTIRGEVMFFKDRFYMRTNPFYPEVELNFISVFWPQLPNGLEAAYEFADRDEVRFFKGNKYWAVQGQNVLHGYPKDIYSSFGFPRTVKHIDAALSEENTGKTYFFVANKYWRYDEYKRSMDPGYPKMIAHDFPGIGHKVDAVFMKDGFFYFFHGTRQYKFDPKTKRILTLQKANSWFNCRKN

[5] = target: MMP-9 (Homo sapiens, UniProt P14780); format: biochemical
[6] = tested on: chick neuronal assay; format: cell-based
[7] = target: anthrax lethal factor (LF) (Bacillus anthracis, UniProt P15917); assay: biochemical
[8] = target: T1, BoNT/A LC; assay: biochemical

MMP-9, sequence (P14780 94-707): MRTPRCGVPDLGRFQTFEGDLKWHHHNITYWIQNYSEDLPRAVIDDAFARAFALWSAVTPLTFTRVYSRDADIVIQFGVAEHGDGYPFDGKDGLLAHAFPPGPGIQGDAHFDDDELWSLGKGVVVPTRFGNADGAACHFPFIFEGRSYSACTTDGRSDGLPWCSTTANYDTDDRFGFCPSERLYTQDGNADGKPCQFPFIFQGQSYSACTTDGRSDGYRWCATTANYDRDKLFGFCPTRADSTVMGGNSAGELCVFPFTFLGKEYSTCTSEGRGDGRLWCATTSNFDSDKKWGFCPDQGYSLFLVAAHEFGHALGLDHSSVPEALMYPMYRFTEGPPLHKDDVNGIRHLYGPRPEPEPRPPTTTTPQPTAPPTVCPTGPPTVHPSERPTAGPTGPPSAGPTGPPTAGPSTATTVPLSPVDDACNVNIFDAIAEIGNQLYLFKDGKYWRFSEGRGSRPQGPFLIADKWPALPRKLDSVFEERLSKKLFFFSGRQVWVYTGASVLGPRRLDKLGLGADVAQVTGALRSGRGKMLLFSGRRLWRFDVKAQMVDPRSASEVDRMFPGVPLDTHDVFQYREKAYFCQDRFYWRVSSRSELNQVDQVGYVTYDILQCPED
T1 sequence (P0DPI0 2-448 limits assumed): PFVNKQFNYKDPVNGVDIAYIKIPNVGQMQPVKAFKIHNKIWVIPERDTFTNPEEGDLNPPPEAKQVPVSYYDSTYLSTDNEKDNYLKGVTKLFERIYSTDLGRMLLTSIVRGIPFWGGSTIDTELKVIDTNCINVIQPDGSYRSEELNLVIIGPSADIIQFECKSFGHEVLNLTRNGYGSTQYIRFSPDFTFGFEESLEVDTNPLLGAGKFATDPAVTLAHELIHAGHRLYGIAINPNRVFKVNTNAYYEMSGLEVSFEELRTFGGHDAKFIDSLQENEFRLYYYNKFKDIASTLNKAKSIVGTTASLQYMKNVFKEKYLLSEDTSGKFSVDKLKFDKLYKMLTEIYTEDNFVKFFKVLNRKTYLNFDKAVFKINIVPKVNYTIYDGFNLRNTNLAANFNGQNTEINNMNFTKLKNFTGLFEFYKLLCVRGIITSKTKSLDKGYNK
anthrax lethal factor (LF), sequence (P15917 34-809 limits assumed): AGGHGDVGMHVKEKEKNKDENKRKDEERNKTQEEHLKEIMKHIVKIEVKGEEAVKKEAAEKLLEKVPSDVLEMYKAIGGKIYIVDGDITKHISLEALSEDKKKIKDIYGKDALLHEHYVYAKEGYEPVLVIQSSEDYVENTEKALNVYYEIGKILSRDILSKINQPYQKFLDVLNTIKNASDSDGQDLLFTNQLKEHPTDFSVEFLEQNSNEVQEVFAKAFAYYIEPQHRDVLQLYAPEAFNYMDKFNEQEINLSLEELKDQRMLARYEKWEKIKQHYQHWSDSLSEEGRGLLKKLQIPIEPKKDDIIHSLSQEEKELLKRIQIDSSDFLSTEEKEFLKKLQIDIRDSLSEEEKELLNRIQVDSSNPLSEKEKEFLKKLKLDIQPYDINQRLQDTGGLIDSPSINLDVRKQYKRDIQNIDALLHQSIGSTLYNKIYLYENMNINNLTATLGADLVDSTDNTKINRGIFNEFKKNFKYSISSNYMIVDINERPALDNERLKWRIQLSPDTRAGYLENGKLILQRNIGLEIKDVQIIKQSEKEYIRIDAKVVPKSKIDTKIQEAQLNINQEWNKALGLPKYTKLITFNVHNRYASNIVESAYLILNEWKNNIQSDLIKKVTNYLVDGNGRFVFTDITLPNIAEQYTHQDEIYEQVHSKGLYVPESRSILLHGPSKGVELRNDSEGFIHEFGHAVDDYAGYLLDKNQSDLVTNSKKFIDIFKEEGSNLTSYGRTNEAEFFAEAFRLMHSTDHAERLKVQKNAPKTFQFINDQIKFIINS
BoNT/B LC, sequence (P10844 2-441 limits assumed): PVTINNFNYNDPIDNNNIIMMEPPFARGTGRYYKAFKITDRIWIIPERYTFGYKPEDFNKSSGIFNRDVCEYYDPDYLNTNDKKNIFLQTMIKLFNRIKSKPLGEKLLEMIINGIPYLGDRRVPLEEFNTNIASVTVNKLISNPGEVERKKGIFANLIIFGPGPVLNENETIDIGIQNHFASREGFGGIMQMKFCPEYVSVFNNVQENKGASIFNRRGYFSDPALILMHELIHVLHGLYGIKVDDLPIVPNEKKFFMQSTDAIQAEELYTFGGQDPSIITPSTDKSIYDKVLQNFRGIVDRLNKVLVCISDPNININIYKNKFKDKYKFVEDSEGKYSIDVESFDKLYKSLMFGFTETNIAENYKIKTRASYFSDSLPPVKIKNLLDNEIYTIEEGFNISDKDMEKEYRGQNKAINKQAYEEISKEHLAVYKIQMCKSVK

Row | SMILES | IC50 [2] | IC50 [7] | also measured
1 | Cl.Cl.N=C(N)c1ccc(Oc2ccc(-c3cc4ccc(C(=N)N)cc4[nH]3)cc2)cc1 [Compound 5] |  |  | neuron permeability [1]: neuron-permeable
2 | N#Cc1ccc(Oc2ccc(-c3cc4ccc(C(=N)N)cc4[nH]3)cc2)cc1 [Compound 11, 2-(4-(4-Cyanophenoxy)phenyl)-1H-indole-6-carboximidamide hydrochloride salt] |  |  | inhibitory activity against BoNT/A LC (in words) [2]: no activity
3 | CN(C)CC/N=C(\N)c1ccc(Oc2ccc(-c3cc4ccc(/C(N)=N/CCN(C)C)cc4[nH]3)cc2)cc1 [Compound 12] |  |  | dependence of inhibitory activity on Zn concentration [2]: independent of the Zn concentration; fold more potent than the lead structure (compound 5) against BoNT/A LC [2]: 4.4 fold; inhibitory activity against BoNT/B [3]: no inhibitory activities; also recorded: does not inhibit; inhibitory activity against human MMP-1 [4]: no inhibitory activities; also recorded: does not inhibit; inhibitory activity against MMP-9 [5]: no inhibitory activities; also recorded: does not inhibit; cellular activity in a chick neuronal assay [6]: showed cellular activity
4 | OC1CN=C(c2ccc(Oc3ccc(-c4cc5ccc(C6=NCC(O)CN6)cc5[nH]4)cc3)cc2)NC1 (stereo not drawn) [Compound 15, 2-(4-(4-(6-(5-Hydroxy-1,4,5,6-tetrahydropyrimidin-2-yl)-1H-indol-2-yl)phenoxy)phenyl)-1,4,5,6-tetrahydropyrimidin-5-ol] |  |  | selectivity for BoNT/A LC versus anthrax LF [2]: over ten-fold
5 | N#Cc1ccc(Oc2ccc(-c3cc4ccc(C5=NCCN5)cc4[nH]3)cc2)c(Cl)c1 [Compound 24c, 2-(4-(2-Chloro-4-cyanophenoxy)phenyl)-6-(4,5-dihydro-1H-imidazol-2-yl)indole] |  |  | fold less potent than bis-imidazoline 13 against BoNT/A LC [2]: 2.4 fold; inhibitory activity against BoNT/A LC (in words) [2]: maintain inhibitory activity
6 | Clc1ccc(Oc2ccc(-c3cc4ccc(C5=NCCN5)cc4[nH]3)cc2)c(Cl)c1 [Compound 29, 2-(4-(2,4-Dichlorophenoxy)phenyl)-6-(4,5-dihydro-1H-imidazol-2-yl)-1H-indole] |  |  | inhibitory activity against BoNT/A LC (in words) [2]: maintain inhibitory activity
7 | N#Cc1ccc2cc(-c3ccc(F)cc3)[nH]c2c1 [Compound 39, 2-(4-Fluorophenyl)-1H-indole-6-carbonitrile] | > 100 µM | > 100 µM | 
8 | NC(=O)c1ccc2cc(-c3ccc(F)cc3)[nH]c2c1 [Compound 40a, 2-(4-Fluorophenyl)-1H-indole-6-carboxamide] | > 100 µM | > 100 µM | 
9 | N=C(N)c1ccc2cc(-c3ccc(F)cc3)[nH]c2c1 [Compound 40b, 2-(4-Fluorophenyl)-1H-indole-6-carboximidamide] | > 100 µM | 48 µM | 
10 | Fc1ccc(-c2cc3ccc(C4=NCCN4)cc3[nH]2)cc1 [Compound 40c, 6-(4,5-Dihydro-1H-imidazol-2-yl)-2-(4-fluorophenyl)-1H-indole] | > 100 µM | 40 µM | 
11 | COc1ccc(-c2cc3ccc(C(N)=O)cc3[nH]2)cc1 [Compound 43a, 2-(4-Methoxyphenyl)-1H-indole-6-carboxamide] | > 100 µM | > 100 µM | 
12 | COc1ccc(-c2cc3ccc(C(=N)N)cc3[nH]2)cc1 [Compound 43b, 2-(4-Methoxyphenyl)-1H-indole-6-carboximidamide] | > 100 µM | > 100 µM | 
13 | COc1ccc(-c2cc3ccc(C4=NCCN4)cc3[nH]2)cc1 [Compound 43c, 2-(4-Methoxyphenyl)-6-(4,5-dihydro-1H-imidazol-2-yl)-1H-indole] | 45 µM | 61 µM | 
14 | c1cc(-c2cc3ccc(C4=NCCN4)cc3[nH]2)ccc1C1=NCCN1 [Compound 44a, 6-(4,5-Dihydro-1H-imidazol-2-yl)-2-(4-(4,5-dihydro-1H-imidazol-2-yl)phenyl)-1H-indole] |  |  | inhibitory activity against BoNT/B [3]: no inhibitory activities; inhibitory activity against human MMP-1 [4]: no inhibitory activities; inhibitory activity against MMP-9 [5]: no inhibitory activities
15 | c1cc(-c2cc3ccc(C4=NCCN4)cc3s2)ccc1C1=NCCN1 [Compound 46a, 2-(4-(6-(4,5-Dihydro-1H-imidazol-2-yl)benzo[b]thiophen-2-yl)phenyl)-4,5-dihydro-1H-imidazole] |  |  | IC50 [8]: 28 µM
16 | NC(=O)c1ccc2cc(-c3ccc(F)cn3)sc2c1 [Compound 49, 2-(5-Fluoro-2-pyridyl)-6-benzo[b]thiophenecarboxamide] | > 100 µM | > 100 µM | 
17 | NCCNc1ccc(-c2cc3ccc(C4=NCCN4)cc3s2)nc1 [Compound 50, N^1–(6-(6-(4,5-Dihydro-1H-imidazol-2-yl)benzo[b]thiophen-2-yl)pyridine-3-yl)ethane-1,2-diamine] |  | > 100 µM | 
